# According to patent US20260294905A1, “USE OF PLURALITY OF COMPOUNDS IN PREPARATION OF DRUG FOR TREATING MYELOPROLIFERATIVE NEOPLASMS” (THE SECOND XIANGYA HOSPITAL OF CENTRAL SOUTH UNIVERSITY, priority 2022, published 2026):
# Where “and” joins values, the source holds several entries; their conditions need not be identical. Equal entries are not always repeated. Entries after “also recorded” stand apart in the source; their conditions may differ.
# Legend:
# [1] = test system: HEL cells (human erythroleukemia cell line); assay: Annexin V-PI staining and flow cytometry, apoptosis of HEL cells, 24 h; format: cell-based
# Description: • 1. the cell lines and inhibitors were the same as those in Example 1. • 2. detection of cell apoptosis
# (§1) To detect the apoptosis-promoting effect of the inhibitors, HEL naïve cell strains were treated with Ruxolitinib and the compounds for 24 hours respectively (with concentrations of: 0, 0.1, 0.5, 1 μM or 0, 0.1, 0.3, 1, 3, 10 μM), and added with DMSO to make up to the same amount. 3 parallel replicate groups were set up, and cell apoptosis was detected by Annexin V and PI staining followed by flow cytometry.
# (§2) A calculation formula of cell apoptosis rate was: cell apoptosis rate=the ratio of early apoptotic cells (Annexin V^+/PI^−)+the ratio of late apoptotic cells and necrotic cells (Annexin V^+/PI^+).
# [2] = test system: HEL cells (human erythroleukemia cell line); assay: CellTiter-Lumi luminescence proliferation of naive HEL cells, 48 h; format: cell-based; conditions: for activity at 0.1 µM / activity at 0.3 µM / activity at 1 µM / activity at 3 µM / activity at 10 µM: vs DMSO control, read-out: average proliferation rate of HEL cells
# Description: (§3) HELs (Human erythroleukemia cell lines) and Ruxolitinib-resistant HEL cells were both cultured in a RPMI medium (Gibco) containing 20% heat-inactivated fetal bovine serum (Gibco) and 1% penicillin/streptomycin.
# (§4) Ruxolitinib and other compounds were all purchased from Selleck, dissolved in DMSO with a stock solution concentration of 10 mM, and cryopreserved at −80° C. The working solution was diluted to a specified multiple using a RPMI medium and then used for treating cells. Ruxolitinib was specifically ruxolitinib phosphate.
# (§5) To detect the antiproliferative effect of the inhibitor, the aforementioned cell lines were cultured at 3,000 cells/100 μL of the system per well, added with increasing concentrations of Ruxolitinib (concentration gradients of HEL cells: 0, 0.1, 1, 2.5, 5 μM; or 0, 0.1, 0.3, 1, 3, 10 μM), and added with DMSO to make up to the same amount. 4 parallel replicate groups were set up, and 3 blank wells (wells containing culture media without cells) were set up.
# (§6) A calculation formula of the cell proliferation rate was: cell proliferation rate=(Luminescence value of the group added with the drug-average Luminescence value of the blank wells)/(Luminescence value of the DMSO control group-average Luminescence value of the blank wells)×100%.
# In order to detect the effects of the compounds on the proliferation abilities of drug-resistant myeloproliferative neoplasm cells, the method was to treat the HEL naïve cell lines with increasing concentrations of Ruxolitinib and the compounds respectively, and to detect the proliferation of the cells by a CellTiter-Lumi™ luminescence method.
# [3] = test system: HEL^RE cells (Ruxolitinib-resistant HEL); assay: Annexin V-PI staining and flow cytometry, apoptosis of HEL^RE cells; format: cell-based, human; conditions: for average apoptosis rate of HEL-RE cells: 24 h; for promotion of apoptosis of HEL^RE cells (in words): 0.1-10 μM
# Description: as §1, §2
# In order to detect the effects of compounds on the abilities of drug-resistant myeloproliferative neoplasm cells, the method was to treat HEL^RE with increasing concentrations of Ruxolitinib and the compounds, and to detect cell apoptosis by Annexin V and PI staining followed by flow cytometry.
# [4] = test system: HEL^RE cells (Ruxolitinib-resistant HEL); assay: CellTiter-Lumi luminescence proliferation of Ruxolitinib-resistant HEL^RE cells, 48 h; format: cell-based, human; conditions: for inhibition of proliferation of HEL^RE cells (in words): 0.1-10 μM; for activity at 0.1 µM / activity at 0.3 µM / activity at 1 µM / activity at 3 µM / activity at 10 µM: vs DMSO control, read-out: average proliferation rate of HEL^RE cells
# Text: as §3
# A Ruxolitinib-resistant HEL model, i.e., a HEL^RE model, was constructed by starting the addition of Ruxolitinib at a concentration lower than the IC50 of naïve cells and slowly incrementing the concentration to a high concentration, and preventing the cells from being killed. Our starting concentration was 0.1 μM. The drug was added upon occurrence of cell proliferation. The drug addition gradient was an increment at a multiple of 1.25, and the final concentration was 2.0 μM. Stable drug-resistant cells were obtained after 4-6 weeks.
# as §4, §5, §6
# A method for evaluating whether the model was successfully constructed was to compare the IC50s of resistant cells and naïve cells.
# In order to detect the effects of five compounds on the proliferation abilities of drug-resistant myeloproliferative neoplasm cells, the method was to treat HEL^RE with increasing concentrations of Ruxolitinib and the five compounds respectively, and to detect the proliferation of the cells by a CellTiter-Lumi™ luminescence method.
# [5] = test system: myeloproliferative neoplasms patients; conditions: cited from earlier work; for side effects / safety in patients / effect on symptoms, clonal hematopoiesis, mutant gene load: clinical use
# [6] = Homo sapiens, HEL^RE cells, 48 h
SMILES,average apoptosis rate of HEL cells ([1]; 0.1 μM),average apoptosis rate of HEL cells ([1]; 0.3 μM),average apoptosis rate of HEL cells ([1]; 1 μM),average apoptosis rate of HEL cells ([1]; 3 μM),average apoptosis rate of HEL cells ([1]; 10 μM),"activity at 0.1 µM ([2]; Homo sapiens, 48 h)","activity at 0.3 µM ([2]; Homo sapiens, 48 h)","activity at 1 µM ([2]; Homo sapiens, 48 h)","activity at 3 µM ([2]; Homo sapiens, 48 h)","activity at 10 µM ([2]; Homo sapiens, 48 h)",average apoptosis rate of HEL-RE cells ([3]; 0.1 μM),average apoptosis rate of HEL-RE cells ([3]; 0.3 μM),average apoptosis rate of HEL-RE cells ([3]; 1 μM),average apoptosis rate of HEL-RE cells ([3]; 3 μM),average apoptosis rate of HEL-RE cells ([3]; 10 μM),"activity at 0.1 µM [4, 6]","activity at 0.3 µM [4, 6]","activity at 1 µM [4, 6]","activity at 3 µM [4, 6]","activity at 10 µM [4, 6]",other results
Cc1ccc2c(Nc3cccc(Cl)c3F)nccc2c1NC(=O)c1csc2c(N)ncnc12 [Belvarafenib],6.58±0.760% and 6.58%,7.42±0.950% and 7.42%,7.80±0.700% and 7.80%,7.17±1.31% and 7.17%,7.55±0.160% and 7.55%,98.9 ± 6.41%,89.2 ± 4.68%,98.2 ± 3.19%,90.1 ± 4.72%,87.3 ± 2.39%,5.55±0.440% and 5.55%,5.40±0.570% and 5.40%,5.71±0.260% and 5.71%,6.05±0.430% and 6.05%,7.13±0.450% and 7.13%,104 ± 6.13%,92.4 ± 2.45%,70.4%,45.4 ± 2.33%,31.1 ± 3.6%,"promotion of apoptosis of HEL cells (in words) ([1]; 0.1-10 μM): could not promote apoptosis of the HEL cells; inhibition of proliferation of HEL cells (in words) ([2]; 0.1-10 μM): could not inhibit the proliferation of the HEL cells; promotion of apoptosis of HEL^RE cells (in words) [3]: could not promote apoptosis of the HEL^RE cells; inhibition of proliferation of HEL^RE cells (in words) ([4]; HEL^RE cells): could inhibit the proliferation of the HEL^RE cells, and this effect increased with increase in the drug concentration"
Cc1cnc(Nc2ccc(OCCN3CCCC3)cc2)nc1Nc1cccc(S(=O)(=O)NC(C)(C)C)c1 [Fedratinib],,,,,,,,,,,,,,,,,,,,,"side effects / safety in patients [5]: may cause encephalopathy, including the risk of Wernicke's encephalopathy"
"NC(=O)NO [Hydroxyurea, hydroxyurea]",,,,,,,,,,,,,,,,,,,,,"effect on symptoms, clonal hematopoiesis, mutant gene load [5]: can only relieve symptoms but cannot inhibit clonal hematopoiesis; side effects / safety in patients [5]: may increase the risks of myelodysplastic syndrome and acute myelogenous leukemia"
Cn1c(Nc2ccc(C(F)(F)F)cc2)nc2cc(Oc3ccnc(-c4ncc(C(F)(F)F)[nH]4)c3)ccc21 [RAF265],7.24±1.30% and 7.24%,7.19±0.400% and 7.19%,8.11±0.260% and 8.11%,10.7±1.22% and 10.7%,12.8±1.44% and 12.8%,66.1 ± 4.71%,45.2 ± 2.96%,37 ± 2.18%,30 ± 0.13%,19.2 ± 0.99%,6.48±0.480% and 6.48%,7.31±0.140% and 7.31%,8.24±0.730% and 8.24%,11.9±0.520% and 11.9%,19.1±3.75% and 19.1%,92 ± 3.92%,67.2 ± 3.7%,35.8 ± 3.88%,21.8 ± 1.48%,3.45 ± 0.58%,"effect on apoptosis compared with Ruxolitinib ([1]; 0.1-10 μM): its inhibitory effect was better than that of Ruxolitinib; promotion of apoptosis of HEL cells (in words) ([1]; 0.1-10 μM): could promote the apoptosis of the HEL cells, this effect was increased with the increase of the drug concentration; also recorded: can promote the apoptosis of the HEL cells; inhibition of proliferation of HEL cells (in words) ([2]; 0.1-10 μM): can successfully inhibit the proliferation of the HEL cells; also recorded: could inhibit the proliferation of the HEL cells, this effect was increased with the increase of the drug concentration; inhibitory effect on proliferation compared with Ruxolitinib ([2]; 0.1-10 μM): its inhibitory effect was better than that of Ruxolitinib; overall effectiveness among the compounds ([2]; proliferation and apoptosis taken together): more effective; promotion of apoptosis of HEL^RE cells (in words) [3]: could promote apoptosis of the HEL^RE cells, and this effect increased with increase in the drug concentration; also recorded: can promote the apoptosis of the HEL^RE cells; inhibition of proliferation of HEL^RE cells (in words) ([4]; HEL^RE cells): could inhibit the proliferation of the HEL^RE cells, and this effect increased with increase in the drug concentration; overall effectiveness among the compounds ([4]; HEL^RE cells, proliferation and apoptosis taken together): more effective"
N#CC[C@H](C1CCCC1)n1cc(-c2ncnc3[nH]ccc23)cn1 [Ruxolitinib],7.40±0.059% and 7.40%,7.46±0.679% and 7.46%,8.61±0.403% and 8.61%,7.19±0.209% and 7.19%,6.36±0.036% and 6.36%,80.9 ± 1.35%,54.9 ± 4.35%,42.7 ± 4.05%,34.7 ± 1.14%,29.4 ± 0.49%,12.4±0.540% and 12.4%,13.0±1.03% and 13.0%,10.8±1.02% and 10.8%,10.2±0.880% and 10.2%,10.6±1.33% and 10.6%,105 ± 2.08%,105 ± 3.59%,104 ± 9.46%,109 ± 4.39%,96 ± 3.69%,"IC50 ([2]; Homo sapiens, 48 h, mean (95% confidence interval)): 2.31 µM; drug resistance index (ratio of IC50s of resistant and naive cells) ([4]; HEL^RE vs HEL cells, 2880 min): 19.0; IC50 ([4]; Homo sapiens, HEL^RE cells, 48 h, mean (95% confidence interval)): 44.7 µM; patients developing drug resistance ([5]; MF patients treated for 1 year, type I JAK inhibitors such as RUX): more than 40%; effect on symptoms, clonal hematopoiesis, mutant gene load [5]: cannot reduce the load of mutant genes; side effects / safety in patients [5]: more severe anemia; also recorded: bone marrow suppression as a common side effect; spleen volume and symptoms ([5]; intermediate- and high-risk MF and PV, Phase II and III trials, vs optimal therapy): can reduce the spleen volume and alleviate symptoms"
